Reference: article PMC11111404, “Discovery of potent small-molecule inhibitors of lipoprotein(a) formation” (Nature, 2024)
“And” between values parts separate entries of the source, which are not always exact repeats. Equal values may be shown once. Read-outs that look alike come from different tables or passages of the source.

What was measured:
apo(a) KIV8 = molecular target: T1, apo(a) KIV8 (Homo sapiens, UniProt P08519); assay: ITC binding to apo(a) KIV8
T1 construct: made in house
T1 sequence (P08519 1387-1465 limits assumed): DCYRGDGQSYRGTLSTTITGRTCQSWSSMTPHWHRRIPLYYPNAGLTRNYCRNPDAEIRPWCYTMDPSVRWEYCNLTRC
Description: (§1) The nucleotide sequence encoding the human LPA gene (NP_005568.2) was inserted into a mammalian expression vector containing a cytomegalovirus promoter. Protein expression was performed by transient transfection of human embryonic kidney 293 (HEK293) cells cultured in serum-free medium. The culture medium was collected five days after transfection and human apo(a) protein was purified using L-lysine affinity chromatography. Nucleotide sequences encoding various KIV domains of human apo(a) and human and rat plasminogen were inserted into a pET21a Escherichia coli expression vector. Bacterial BL21(DE3) was used as the expression host, and the induction of protein expression was performed in 2× TY medium with 1 mM isopropyl β-D-1-thiogalactopyranoside at 37 °C for 5 h. Cells were collected and stored at –80 °C for subsequent protein purification and refolding. […] All protein concentrations were determined by A280.
(§2) Experiments were performed on a MicroCal Auto-iTC200 titration calorimeter (Malvern Panalytical), with a cell volume of 200 μl and a 40-μl microsyringe. […] The microsyringe was loaded with a solution of the respective compounds, with the concentration measured by quantitative nuclear magnetic resonance, and was inserted into the calorimetric cell prefilled with the respective recombinant proteins of known concentration in ITC buffer. […]

apo(a) KIV5–8 = molecular target: T2, apo(a) KIV5–8 (Homo sapiens, UniProt P08519); assay: ITC binding to apo(a) KIV5–8
T2 construct: made in house
T2 sequence (P08519 1043-1470 limits assumed): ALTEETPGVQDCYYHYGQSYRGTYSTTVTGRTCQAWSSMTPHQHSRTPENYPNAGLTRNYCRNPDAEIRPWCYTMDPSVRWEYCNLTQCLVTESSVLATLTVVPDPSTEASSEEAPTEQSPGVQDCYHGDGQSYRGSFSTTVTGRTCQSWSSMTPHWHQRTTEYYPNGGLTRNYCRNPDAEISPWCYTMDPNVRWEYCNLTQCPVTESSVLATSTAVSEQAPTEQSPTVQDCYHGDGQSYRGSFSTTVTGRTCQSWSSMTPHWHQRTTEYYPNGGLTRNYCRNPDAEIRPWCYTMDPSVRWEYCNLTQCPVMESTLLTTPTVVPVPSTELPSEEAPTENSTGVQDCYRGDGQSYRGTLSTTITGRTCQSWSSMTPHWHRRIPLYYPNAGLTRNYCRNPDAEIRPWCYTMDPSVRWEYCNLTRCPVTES
Description: as §1, §2

plasminogen = molecular target: T3, plasminogen (Rattus norvegicus, UniProt Q01177); assay: Rat plasma plasminogen concentration (ELISA) after oral dosing; type: in vivo; conditions: for PLG mass, Plasminogen (mean of replicates) / PLG mass, Replicate 1 / PLG mass, Replicate 2: rat plasma, individual animal
T3 construct: Plasma samples were collected via the abdominal aorta; from tissue; host or cells: Citrated plasma of orally dosed male Sprague Dawley rats
Description: Male Sprague Dawley rats (Charles River, average body weight 310 g, aged eight to nine weeks old) were housed in cages with a standard light cycle (12-h light, 12-h dark), at room temperature (22 ± 4 °C), with a relative humidity of 30–70%. Rats were identified by numbers on the cage cards. After arrival, rats were fed on a normal diet (Harlan Teklad diet 2014) and randomized to treatment groups (n = 5 per group) by baseline plasma plasminogen concentration and activity using a BRAT. LSN3441732 and LY3473329 were administered QD orally at three dose levels (3.7, 12.3 and 37 mg kg^−1; 3.2, 10.5 and 31.6 mg kg^−1 per dose, respectively) or vehicle (10 ml kg^−1, 1% HEC, 0.25% Tween-80, Antifoam) for four days. Terminal blood was drawn under general anaesthesia 24 h after the day-4 oral dose. Plasma samples were collected via the abdominal aorta into a premeasured anticoagulant BD Vacutainer used for blood collection (2.7 ml, buffered sodium citrate). The liver was flash frozen in liquid nitrogen. To measure plasminogen activity, 100 µl plasma per well was added to a 96-well plate (Corning) and the following were added to the indicated concentrations: 7.5 mM CaCl2 and 117 mM NaCl. Wells were mixed and warmed to 37 °C. Urokinase (Millipore) was added at 125 U per well and the plate was incubated at 37 °C for 4 min. The plasminogen substrate Chromogenix S-2251 (DiaPharma) was added to a concentration of 3.3 mM. The mixture was added and the plate was sealed and placed in a prewarmed plate reader, shaken, and the absorbance read every 30 s for 2 h. The maximum slope for each curve was determined and the percentage inhibition was calculated relative to untreated controls. Plasminogen protein was measured using ELISA kits for rat (Abcam ab157740) according to the manufacturer’s instructions. Plasminogen activity (percentage) and mass (µg ml^−1) in rat were analysed by ANOVA in JMP 16.1.0. The percentage reduction of plasminogen activity and mass for each treated group was compared with vehicle by Dunnett’s method.

[1] = Pharmacokinetics in monkey plasma after oral dosing; type: in vivo; conditions: for AUC(0-t): day 15, read-out: AUC(0-96 hr)
Description: Plasma samples were collected from all monkeys before dosing and at four-hour time points only on days 1, 3, 5, 9 and 14. A full PK profile was obtained in the first three monkeys of each dose group on day 15, collecting samples before dosing and 1, 2, 4, 8, 12, 24, 48 and 96 h after dosing. Concentrations of compounds were evaluated in plasma samples using a non-GLP LC–MS/MS assay. The non-compartmental plasma PK parameters were calculated using Watson (v.7.5).

[2] = 3441732 dose 3.7 mpk, 3.7 mg/kg
[3] = 3441732 dose 12.3 mpk, 12.3 mg/kg
[4] = 3473329 dose 3.2 mpk, 3.2 mg/kg
[5] = 3473329 dose 10.5 mpk, 10.5 mg/kg
[6] = 3473329 dose 31.6 mpk, 31.6 mg/kg

T3 sequence (Q01177 20-812 limits assumed): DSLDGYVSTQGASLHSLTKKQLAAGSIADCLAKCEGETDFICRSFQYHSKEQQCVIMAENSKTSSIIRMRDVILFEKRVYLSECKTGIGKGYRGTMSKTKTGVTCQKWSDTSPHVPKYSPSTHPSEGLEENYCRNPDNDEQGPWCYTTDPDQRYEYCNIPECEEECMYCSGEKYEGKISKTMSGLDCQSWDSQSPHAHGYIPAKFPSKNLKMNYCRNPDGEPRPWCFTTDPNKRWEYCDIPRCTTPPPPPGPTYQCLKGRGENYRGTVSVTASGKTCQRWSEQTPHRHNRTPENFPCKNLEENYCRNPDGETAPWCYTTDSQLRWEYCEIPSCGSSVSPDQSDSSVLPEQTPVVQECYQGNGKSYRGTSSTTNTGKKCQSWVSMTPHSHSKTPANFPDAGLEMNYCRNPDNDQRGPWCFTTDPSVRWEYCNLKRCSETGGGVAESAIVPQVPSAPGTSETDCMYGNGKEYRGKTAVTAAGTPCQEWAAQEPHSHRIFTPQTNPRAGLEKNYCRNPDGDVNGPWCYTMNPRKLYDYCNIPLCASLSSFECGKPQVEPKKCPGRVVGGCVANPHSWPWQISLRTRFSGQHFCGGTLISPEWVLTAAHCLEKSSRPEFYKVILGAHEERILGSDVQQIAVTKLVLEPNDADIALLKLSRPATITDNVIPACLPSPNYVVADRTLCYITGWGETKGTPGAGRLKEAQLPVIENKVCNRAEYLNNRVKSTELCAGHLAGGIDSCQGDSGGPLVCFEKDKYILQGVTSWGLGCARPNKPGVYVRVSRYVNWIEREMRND

SMILES: Cl.Cl.O=C(Nc1cccc(C[C@H](C(=O)O)[C@H]2CCNC2)c1)Nc1cccc(C[C@H](C(=O)O)[C@H]2CCNC2)c1 [LSN3441732]
- Kd (apo(a) KIV8): < 10 nM
- Kd (apo(a) KIV5–8): < 15 nM
- PLG mass, Plasminogen (mean of replicates) (plasminogen; [2]): 199.7 µg/mL and 188.1 µg/mL and 194.6 µg/mL and 164.2 µg/mL and 177.8 µg/mL
- PLG mass, Replicate 1 (plasminogen; [2]): 193.976 µg/mL and 187.308 µg/mL and 191.488 µg/mL and 158.900 µg/mL and 169.900 µg/mL
- PLG mass, Replicate 2 (plasminogen; [2]): 205.500 µg/mL and 188.992 µg/mL and 197.772 µg/mL and 169.500 µg/mL and 185.664 µg/mL
- PLG mass, Plasminogen (mean of replicates) (plasminogen; [3]): 192.7 µg/mL and 158.1 µg/mL and 151.7 µg/mL and 134.6 µg/mL and 119.3 µg/mL
- PLG mass, Replicate 1 (plasminogen; [3]): 187.144 µg/mL and 151.612 µg/mL and 145.376 µg/mL and 127.920 µg/mL and 115.472 µg/mL
- PLG mass, Replicate 2 (plasminogen; [3]): 198.344 µg/mL and 164.496 µg/mL and 157.928 µg/mL and 141.248 µg/mL and 123.088 µg/mL
- PLG mass, Plasminogen (mean of replicates) (plasminogen; 3441732 dose 37 mpk, 37 mg/kg): 113.7 µg/mL and 124.7 µg/mL and 116.9 µg/mL and 125.1 µg/mL and 127.8 µg/mL
- PLG mass, Replicate 1 (plasminogen; 3441732 dose 37 mpk, 37 mg/kg): 111.012 µg/mL and 118.768 µg/mL and 109.952 µg/mL and 121.004 µg/mL and 125.228 µg/mL
- PLG mass, Replicate 2 (plasminogen; 3441732 dose 37 mpk, 37 mg/kg): 116.416 µg/mL and 130.704 µg/mL and 123.756 µg/mL and 129.140 µg/mL and 130.432 µg/mL
- plasma levels of plasminogen protein (plasminogen; rats, oral dosing): decreased in a dose-dependent manner

SMILES: O=C(O)[C@@H](Cc1cccc(CN(Cc2cccc(C[C@H](C(=O)O)[C@H]3CCNC3)c2)Cc2cccc(C[C@H](C(=O)O)[C@H]3CCNC3)c2)c1)[C@H]1CCNC1 [LY3473329]
- Kd (apo(a) KIV8): 22 nM
- Tmax ([1]; Chinese cynomolgus, oral 1 mg/kg, day 15): 7 ± 5.7 h
- Cmax ([1]; Chinese cynomolgus, oral 10 mg/kg, day 15): 3.47 µM
- AUC(0-t) ([1]; Chinese cynomolgus, oral 10 mg/kg): 207 µM·h
- Tmax ([1]; Chinese cynomolgus, oral 100 mg/kg, day 15): 1 ± 1 h
- AUC(0-t) ([1]; cynomolgus, oral 100 mg/kg): 294 µM·h
- PLG mass, Plasminogen (mean of replicates) (plasminogen; [4]): 281.7 µg/mL and 301.7 µg/mL and 249.5 µg/mL and 274.1 µg/mL and 246.9 µg/mL
- PLG mass, Replicate 1 (plasminogen; [4]): 275.600 µg/mL and 301.472 µg/mL and 251.100 µg/mL and 270.384 µg/mL and 245.604 µg/mL
- PLG mass, Replicate 2 (plasminogen; [4]): 287.828 µg/mL and 301.932 µg/mL and 247.992 µg/mL and 277.820 µg/mL and 248.160 µg/mL
- PLG mass, Plasminogen (mean of replicates) (plasminogen; [5]): 239.9 µg/mL and 236.1 µg/mL and 242.7 µg/mL and 225.5 µg/mL and 223.8 µg/mL
- PLG mass, Replicate 1 (plasminogen; [5]): 241.392 µg/mL and 228.556 µg/mL and 235.352 µg/mL and 212.812 µg/mL and 213.952 µg/mL
- PLG mass, Replicate 2 (plasminogen; [5]): 238.436 µg/mL and 243.736 µg/mL and 249.956 µg/mL and 238.240 µg/mL and 233.564 µg/mL
- PLG mass, Plasminogen (mean of replicates) (plasminogen; [6]): 199.2 µg/mL and 187.7 µg/mL and 187.4 µg/mL and 229.5 µg/mL and 225.0 µg/mL
- PLG mass, Replicate 1 (plasminogen; [6]): 197.560 µg/mL and 179.928 µg/mL and 183.640 µg/mL and 229.888 µg/mL and 216.732 µg/mL
- PLG mass, Replicate 2 (plasminogen; [6]): 200.844 µg/mL and 195.380 µg/mL and 191.112 µg/mL and 229.028 µg/mL and 233.256 µg/mL
